Non-standard residues stand in square brackets, D forms with d. No end group written: not given here. pS = N[C@@H](COP(=O)(O)O)C(=O)O
Experiments:
[1] = system: T cells present in the lymph nodes draining the site of administration; experiment: Subcutaneous immunization of BALB/c mice; ex vivo proliferation and cytokine secretion of lymph node cells stimulated with peptide P140; conditions: s.c., in the presence of CFA
Method: Eur. J. Immunol. 33, 287-296].
Female BALB/c mice aged 7 weeks old (4 groups of two mice) are immunized subcutaneously in the flanks with different formulations. […] The mice having received peptide in its free form or in the form of nanoparticles all received the same quantity of peptide, namely 100 μg per mouse.
One week after the immunization, the mice are sacrificed and samples are taken from the lymph nodes of the flank and of the foreleg. The cells issuing from these lymph nodes are cultured ex vivo in a proportion of 5.10^5 cells per well in the presence of different peptide concentrations (0, 6, 20 and 60 μM) so as to study their proliferation and also the secretion of cytokines.
The Th cells are classified into sub-populations, Th1 or Th2, depending on the cytokines that they produce and the function that they perform. Cells of type Th-1 produce in particular interleukin-2 (IL-2) and interferon-γ (IFN-γ), whereas cells of type Th-2 secrete essentially IL-4, IL-5, IL-6, IL-10 and IL-13. The immunization conditions used here, that is to say the use of CFA, encourage the development of a response of type Th1. Therefore, only the secretion of IL-2 and IFN-γ was studied.

[2] = system: T cells present in the lymph nodes draining the site of administration; conditions: with adjuvant, BALB/c mice, Monneaux et al. 2003; cited from earlier work
mice = experiment: Intranasal administration of peptide P140 in mice; assay type: in vivo
Method: At present, the peptide P140 is administered by subcutaneous injection, which is not a comfortable mode of administration for the patient. Several other modes of administration have thus been tested. For instance, intranasal administration has been tested in mice but is not effective.

In the case of “peptide P140: 21 amino acid peptide RIHMVYSKRSGKPRGYAFIEY, serine in position 10 phosphorylated (SEQ ID NO: 1) (RIHMVYSKR[pS]GKPRGYAFIEY; listed as Homo sapiens)”, the “stimulation indices (proliferation)” value ([1]; 100 μg peptide per mouse, cells cultured with 0, 6, 20, 60 μM peptide) is listed as “positive and dose-dependent”, the “cytokine secretion (IL-2, IFN-γ)” value [1] is listed as “dose-dependent responses” and the “T cell response after s.c. administration in the presence of adjuvant” value [2] is listed as “activation of the auxiliary T cells Th”. For the same substance, the “efficacy of intranasal administration” value (mice) was “not effective”.

Reference: patent publication US9458212B2, “Nanoparticles containing a peptide, vectors containing said nanoparticles, and pharmaceutical uses of said nanoparticles and vectors” (CENTRE NATIONAL DE LA RECHERCHE SCIENTIFIQUE (C.N.R.S.), priority 2008, dated 2016)
